Values of other authors, collected in US20090093542A1, “Copper antagonist compositions” (priority 2007, published 2009).

Legend:
[1] = long-term use in Wilson's disease
[2] = solution of the free base itself

CC(C)(S)[C@@H](N)C(=O)O [Penicillamine, 3-mercapto-D-valine]
solubility in alcohol (alcohol): slightly soluble | solubility in ether, acetone, benzene, and carbon tetrachloride (ether, acetone, benzene, carbon tetrachloride): insoluble | solubility in water (water): freely soluble

CC(=O)[O-].CC(=O)[O-].[Zn+2] [Zinc acetate]
long-term or major side effects in patients [1]: has not shown any long-term or major side effects

NCCNCCNCCN [trientine, triethylenetetramine]
pH of a solution [2]: 14
